{"source": "paper PMC7063992", "about": "“Opossum Cathelicidins Exhibit Antimicrobial Activity Against a Broad Spectrum of Pathogens Including West Nile Virus” (Frontiers in Immunology, 2020)", "key": {"[1]": {"test_system": "Enterococcus faecalis ATCC 29212", "test": "microbe, parasite or virus in culture", "type": "cell-based", "conditions": "E. faecalis ATCC 29212, CAMHB, 37°C 6 h + 2 h, triplicate", "description": "(§1) Peptides corresponding to the predicted antimicrobial regions of ModoCath1 (ΔModoCath1, N-VKRTKRGARRGL […]-C), ModoCath5 (ΔModoCath5, N-[…]-C), ModoCath6 (ΔModoCath6, N-[…]-C) and PMAP36 (N-[…] PLGCG-C) were synthesized via solid-phase peptide synthesis and purified via high-performance liquid chromatography using a commercial service (GenScript, Piscataway Township, NJ, United States). The MIC of synthesized peptides was determined against a panel of bacteria comprising 3 gram-positive strains, Staphylococcus aureus ATCC 6538 (ATCC, Manassas, VA, United States), Bacillus cereus ATCC 10876, and Enterococcus faecalis ATCC 29212, and 3 gram-negative strains, Escherichia coli ATCC 25922, Pseudomonas aeruginosa ATCC 27853, and Salmonella typhimurium ATCC 14028. Ampicillin (Sigma Aldrich, St. Louis, MO, United States) and gentamicin sulfate (Sigma Aldrich) were used as controls for antimicrobial activity. The MIC was determined using a colorimetric method specified by the Microbial Viability Assay Kit-WST (Dojindo, Kumamoto, Japan) in accordance with the manufacturer’s protocol and the Clinical and Laboratory Standards Institute (CLSI) guidelines (2018). Briefly, four colonies of each bacterium were inoculated into 5 mL Luria-Bertani (LB) broth medium at 37°C for 4 to 6 h. The cells were washed with sterile saline (0.9% NaCl) twice and seeded in a single well of a 96-well plate at the cell density of 10^5 CFU/well. Subsequently, 180 μL/well of fresh Mueller-Hinton broth (MHB) was added to the plate. Different concentrations of each peptide and reference antibiotics were serially diluted in 10 μL of MHB and added to each well. The plate was incubated at 37°C for 6 h. Cation-adjusted MH broth (CAMHB) was used to culture E. faecalis. Subsequently, 10 μL of the coloring reagent was added, and cells were incubated at 37°C for 2 h. UV absorbance was measured for each well at 450 nm, using a microplate spectrophotometer (xMark spectrophotometer; Bio-Rad, Hercules, CA, United States). MIC values were determined when the difference in the optical density (OD) between treatments and blanks (media and coloring reagent only) decreased to < 0.05. Experiments were conducted in triplicate. […] The pH conditions were achieved by using acetic acid (Sigma Aldrich)."}, "[2]": {"test_system": "Pseudomonas aeruginosa ATCC 27853", "test": "microbe, parasite or virus in culture", "type": "cell-based", "conditions": "P. aeruginosa ATCC 27853, MHB, 37°C 6 h + 2 h, triplicate", "description": "as §1"}, "[3]": {"test_system": "Escherichia coli ATCC 25922", "test": "microbe, parasite or virus in culture", "type": "cell-based", "conditions": "E. coli ATCC 25922, MHB, 10^5 CFU/well, 37°C 6 h + 2 h with coloring reagent, OD 450 nm, triplicate", "description": "as §1"}, "[4]": {"test_system": "Staphylococcus aureus ATCC 6538", "test": "microbe, parasite or virus in culture", "type": "cell-based", "conditions": "S. aureus ATCC 6538, MHB, 37°C 6 h + 2 h, triplicate", "description": "as §1"}, "[5]": {"test_system": "Salmonella typhimurium ATCC 14028", "test": "microbe, parasite or virus in culture", "type": "cell-based", "conditions": "S. typhimurium ATCC 14028, MHB, 37°C 6 h + 2 h, triplicate", "description": "as §1"}, "[6]": {"test_system": "Bacillus cereus ATCC 10876", "test": "microbe, parasite or virus in culture", "type": "cell-based", "conditions": "B. cereus ATCC 10876, MHB, 37°C 6 h + 2 h, triplicate", "description": "as §1"}, "[7]": {"test_system": "Human primary keratinocytes", "test": "Viability of keratinocytes, XTT", "type": "cell-based", "conditions": "positive control, concentration not given", "excerpt": "The Ethics Committee of the Poitiers Hospital approved the use of human skin samples for research studies. All subjects provided written informed consent in accordance with the tenets of the Declaration of Helsinki. Normal abdominal or breast skin samples were obtained from patients undergoing plastic surgery and thoroughly washed with PBS free of calcium and magnesium (PBS; Gibco, Thermo Fisher Scientific, Waltham, MA, United States) after fat removal. The skin samples were minced into fragments of approximately 125 mm^2, using scalpel blades. Skin samples were incubated overnight at 4°C in a dispase solution (25 U/mL; Life Technologies, Carlsbad, CA, United States). Epidermal sheets were removed from the dermis, and keratinocytes were dissociated via trypsin digestion (trypsin-EDTA; Gibco) for 15 min at 37°C. The cell suspension was then filtered through a 280-μm sterile filter. DMEM (Gibco) supplemented with 10% (vol/vol) of FBS (Gibco) was added, and the suspension was centrifuged at 300 × g and 25°C for 10 min. Keratinocytes were seeded at a density of 10^7 cells in 75-cm^2 tissue culture flask in keratinocyte-serum free medium (K-SFM; Invitrogen, Carlsbad, CA, United States) supplemented with bovine pituitary extract (25 μg/mL; Invitrogen) and recombinant epidermal growth factor (EGF) (0.25 ng/mL; Invitrogen). The cultures were incubated at 37°C in a humidified atmosphere with 5% CO2 until 80% confluence and then stored frozen in liquid nitrogen until use. Finally, keratinocytes were seeded in sterile 24-well culture plates at 10^5 cells/well in K-SFM supplemented with bovine pituitary extract and EGF and cultured to 80% confluence. Cells were then starved overnight in K-SFM alone before stimulation.\nPrimary keratinocytes were cultured in 96-well plates at 4 × 10^4 cells per well in 0.1 mL K-SFM (Invitrogen) up to 80% confluence before being treated with various concentrations of ModoCath peptides for 24 h. Cell viability was assessed using the cell proliferation kit II (XTT; Roche, Basel, Switzerland) in accordance with the manufacturer’s protocol. The XTT labeling mixture was added after 24 h of incubation in the absence or presence of peptides at the indicated concentrations."}, "[8]": {"test_system": "MCF7", "test": "Mammalian cell cytotoxicity, WST-1", "type": "cell-based, human", "conditions": "positive control for complete cell lysis, concentration not given", "description": "(§2) Two mammalian cell lines, including human embryonic kidney cells (HEK293T) and human breast cancer cells (MCF7) were cultured in Dulbecco’s modified Eagle’s medium (DMEM; Hyclone^TM, Logan, UT, United States) supplemented with 10% FBS (Hyclone^TM) and 1% penicillin/streptomycin (Hyclone^TM) and incubated at 37°C and 5% CO2 up to 80% confluence. Cellular adherence to the substratum was disrupted using Accutase (Innovative Cell Technologies, San Diego, CA, United States). In total, 1 × 10^4 to 4 × 10^4 cells in each well of a 96-well plate containing 8, 16, 32, and 64 μg/mL of ModoCath peptides were incubated for 24 h at 37°C and 5% CO2. Additionally, HEK293T cells were incubated in the FBS-free medium. Triton X 100 (Sigma Aldrich) was used as a positive control for complete cell lysis, and untreated cells were used as the negative control. After incubation, the medium was removed from the wells, and 10 μL of coloring solution (Cell Proliferation Reagent WST-1^TM; Sigma Aldrich) and 100 μL of DMEM (Hyclone^TM) were added to the wells in accordance with the manufacturer’s protocol. Absorbance was measured for each well at 440 nm (peptide-treated and control) and 650 nm (background) and recorded as the OD, using a microplate reader (xMark^TM spectrophotometer; Bio-Rad). Cell viability was calculated using the following equation:\n(§3) (1) CellViability(%)=100×(ODpeptide-ODbackground)/(ODnegative-ODbackground)\n(§4) All experiments were performed in triplicate."}, "[9]": {"test_system": "HEK293T", "test": "Mammalian cell cytotoxicity, WST-1", "type": "cell-based, human", "conditions": "positive control for complete cell lysis, concentration not given", "description": "as §2, §3, §4"}, "[10]": {"conditions": "Escherichia coli, ATCC25922, read-out: MIC"}, "[11]": {"conditions": "Staphylococcus aureus, ATCC6538, read-out: MIC"}, "[12]": {"conditions": "Bacillus cereus, ATCC10876, read-out: MIC"}}, "note": "Like-named read-outs stand apart in the source and are kept apart here."}
{"molecule": "CC1(C)S[C@@H]2[C@H](NC(=O)[C@H](N)c3ccccc3)C(=O)N2[C@H]1C(=O)O", "note": "[Ampicillin, reference compound]", "values": [{"measurement": "MIC", "setting": "[1]; Enterococcus faecalis, ATCC29212, read-out: MIC", "value": 2, "unit": "µg/mL"}, {"measurement": "MIC", "setting": "[2]; Pseudomonas aeruginosa, ATCC27853, read-out: MIC", "value": "> 128", "unit": "µg/mL"}, {"measurement": "MIC", "setting": "[3]; [10]", "value": 1, "unit": "µg/mL"}, {"measurement": "MIC", "setting": "[4]; [11]", "value": 1, "unit": "µg/mL"}, {"measurement": "MIC", "setting": "[5]; Salmonella enterica, read-out: MIC", "value": 1, "unit": "µg/mL"}, {"measurement": "MIC", "setting": "[6]; [12]", "value": 16, "unit": "µg/mL"}]}
{"molecule": "CN[C@H](CC(C)C)C(=O)N[C@H]1C(=O)N[C@@H](CC(N)=O)C(=O)N[C@H]2C(=O)N[C@H]3C(=O)N[C@H](C(=O)N[C@H](C(=O)O)c4cc(O)cc(O)c4-c4cc3ccc4O)[C@H](O)c3ccc(c(Cl)c3)Oc3cc2cc(c3O[C@@H]2O[C@H](CO)[C@@H](O)[C@H](O)[C@H]2O[C@H]2C[C@](C)(N)[C@H](O)[C@H](C)O2)Oc2ccc(cc2Cl)[C@H]1O", "note": "[Vancomycin]", "values": [{"measurement": "MIC", "setting": "[3]; [10]", "value": 32, "unit": "µg/mL"}, {"measurement": "MIC", "setting": "[4]; [11]", "value": 5, "unit": "µg/mL"}, {"measurement": "MIC", "setting": "[6]; [12]", "value": 4, "unit": "µg/mL"}]}
{"molecule": "Nisin", "values": [{"measurement": "MIC", "setting": "[3]", "value": "> 32(9.54) μg/mL"}, {"measurement": "MIC", "setting": "[4]", "value": "15 (4.47) μg/mL"}, {"measurement": "MIC", "setting": "[6]", "value": "32 (9.54) μg/mL"}]}
{"molecule": "Triton X-100 [reference compound]", "values": [{"measurement": "Cell viability ± SD", "setting": "[7]", "value": "8.2 ± 0.4", "unit": "%"}, {"measurement": "Cell viability ± SD", "setting": "[8]", "value": "11.4 ± 0.4", "unit": "%"}, {"measurement": "Cell viability ± SD", "setting": "[9]", "value": "11.6 ± 2.5", "unit": "%"}]}
{"molecule": "gentamicin sulfate [Gentamycin, reference compound]", "values": [{"measurement": "MIC", "setting": "[1]", "value": "5 (10.45) μg/mL"}, {"measurement": "MIC", "setting": "[2]", "value": "1 (2.09) μg/mL"}, {"measurement": "MIC", "setting": "[3]", "value": "1 (2.09) μg/mL"}, {"measurement": "MIC", "setting": "[4]", "value": "1 (2.09) μg/mL"}, {"measurement": "MIC", "setting": "[5]", "value": "1 (2.09) μg/mL"}, {"measurement": "MIC", "setting": "[6]", "value": "1 (2.09) μg/mL"}]}
